Reference: ChEMBL document CHEMBL3286115, “Design and Syntheses of Anti-Tuberculosis Agents Inspired by BTZ043 Using a Scaffold Simplification Strategy” (ACS Med Chem Lett, 2014)
Converted amounts (≈) assume the structure as drawn. The source made the active and inactive calls. No cut-off for these calls is given here.

Columns and labels:
[1] = system: Mycobacterium tuberculosis; assay: Antimycobacterial activity against Mycobacterium tuberculosis H37Rv in GAS medium by microplate alamar blue assay; type: functional
[2] = system: Mycobacterium tuberculosis; assay: Antimycobacterial activity against Mycobacterium tuberculosis H37Rv in 7H12 medium by microplate alamar blue assay; type: functional
[3] = system: Mycobacterium tuberculosis; assay: Antimycobacterial activity against Mycobacterium tuberculosis H37Rv; type: functional
[4] = system: Mycobacterium tuberculosis; assay: Antimycobacterial activity against non-replicating Mycobacterium tuberculosis H37Rv by low oxygen recovery assay; type: functional, organism-based
[5] = system: Vero; assay: Cytotoxicity against African green monkey Vero cells; type: cell-based; details: chlorocebus sabaeus

Row | SMILES | MIC [1] [µM] | MIC [2] [µM] | MIC [3] [ng/mL] | Activity [4] | Activity [5]
1 | O=C(OCc1ccccc1)c1cc([N+](=O)[O-])cc(C(F)(F)F)c1 | 2.03 (≈ 0.66 µg/mL) | > 50 |  |  | 
2 | C[C@H]1COC2(CCC(C(=O)Nc3cc([N+](=O)[O-])cc(C(F)(F)F)c3)CC2)O1 (stereo partly drawn) | 18.4 (≈ 7.15 µg/mL) | 23 (≈ 8.93 µg/mL) |  |  | 
3 | O=C(OCc1ccccc1)c1cc([N+](=O)[O-])cc([N+](=O)[O-])c1 | 0.27 (≈ 0.0816 µg/mL) | 13 (≈ 3.94 µg/mL) |  |  | 
4 | C[C@H]1COC2(CCN(c3nc(=O)c4cc(C(F)(F)F)cc([N+](=O)[O-])c4s3)CC2)O1 [BTZ-043] | < 0.02 | < 0.02 | 1 (≈ 2.32 nM) |  | 
5 | C[C@H]1COC2(CCN(S(=O)(=O)c3cc(Br)cc(C(F)(F)F)c3)CC2)O1 |  | > 10 |  |  | 
6 | C[C@H]1COC2(CCN(S(=O)(=O)c3cc([N+](=O)[O-])cc([N+](=O)[O-])c3)CC2)O1 | 2.05 (≈ 0.794 µg/mL) | 1.53 (≈ 0.593 µg/mL) |  | Active | Non-toxic
7 | C[C@H]1COC2(CCN(S(=O)(=O)c3cc([N+](=O)[O-])cc(C(F)(F)F)c3)CC2)O1 | 10.2 (≈ 4.19 µg/mL) | 6.99 (≈ 2.87 µg/mL) |  | Active | Toxic
8 | C[C@H]1COC2(CCC(C(=O)Nc3cccc(C(F)(F)F)c3)CC2)O1 (stereo partly drawn) | 17.9 (≈ 6.15 µg/mL) | > 50 |  |  | 
9 | C[C@H]1COC2(CCC(C(=O)Nc3cc([N+](=O)[O-])cc([N+](=O)[O-])c3)CC2)O1 (stereo partly drawn) | 22.6 (≈ 8.26 µg/mL) | 47.9 (≈ 17.5 µg/mL) |  |  | 
10 | C[C@H]1COC2(CCN(S(=O)(=O)c3cc(-c4ccccn4)cc(C(F)(F)F)c3)CC2)O1 | 49.3 (≈ 21.8 µg/mL) | > 50 |  |  | 
11 | C[C@H]1COC2(CCN(S(=O)(=O)c3cc(-c4ccccc4)cc(C(F)(F)F)c3)CC2)O1 | 17.4 (≈ 7.68 µg/mL) | > 64 |  |  | 
12 | C[C@H]1COC2(CCN(S(=O)(=O)c3cc(-c4cccc[n+]4[O-])cc(C(F)(F)F)c3)CC2)O1 | > 64 | > 64 |  |  | 
